Test results: patent US4476120A, “Thiolic derivatives of erythromycin having therapeutic activity, and pharmaceutical compositions containing them” (Sigma Tau Indistrie Farmaceutiche Riunites, p.A, priority 1982, dated 1984)
Values after ≈ are worked out from the molar mass of the structure shown. Where two headings read alike, the source gives them in different places.

Columns and labels:
E. coli SS 06 = format: cell-based; conditions: Brain Heart Infusion, estolate and RV11-RV15 previously hydrolized, unit assumed
[1] = Hematic levels in the healthy volunteer; format: in vivo, healthy volunteers; conditions: oral, 500 mg of erythromycin, average
Excerpt: For the dosing, the microbiological method using a B. subtilis strain was adopted.

N. meningitidis SS 04 = format: cell-based; conditions: Brain Heart Infusion, estolate and RV11-RV15 previously hydrolized, unit assumed
D. pneumoniae SS 23 = format: cell-based; conditions: Brain Heart Infusion, estolate and RV11-RV15 previously hydrolized, unit assumed
S. heidelberg SS 18 = format: cell-based; conditions: Brain Heart Infusion, estolate and RV11-RV15 previously hydrolized, unit assumed
[2] = in vivo; for Hematic levels in the rat: po, 100 mg/kg; for absorption by oral route (in words): rat
B. cereus ATCC 11778 = format: cell-based; conditions: Brain Heart Infusion, estolate and RV11-RV15 previously hydrolized, unit assumed
[3] = Hematic levels in the rat (absorption by oral route); conditions: for absorption by oral route (in words): from in vivo antibacterial and pharmacodynamic tests
[4] = 0.30 hours, 100 mg/kg as erythromycin, average, 100 mg/kg, 18 min
[5] = 1 hour, 100 mg/kg as erythromycin, average, 100 mg/kg, 60 min
[6] = 4 hours, 100 mg/kg as erythromycin, average, 100 mg/kg, 240 min
[7] = 5 hours, 100 mg/kg as erythromycin, average, 100 mg/kg, 300 min
[8] = 6 hours, 100 mg/kg as erythromycin, average, 100 mg/kg, 360 min
[9] = 2 hours, 100 mg/kg as erythromycin, average, 100 mg/kg, 120 min
[10] = 3 hours, 100 mg/kg as erythromycin, average, 100 mg/kg, 180 min

Row | SMILES | MIC (E. coli SS 06) [µg/mL] | Hematic levels in the healthy volunteer ([1]; 0.30 hours, 18 min) [µg/mL] | Hematic levels in the healthy volunteer ([1]; 1 hour, 60 min) [µg/mL] | Hematic levels in the healthy volunteer ([1]; 2 hours, 120 min) [µg/mL] | Hematic levels in the healthy volunteer ([1]; 3 hours, 180 min) [µg/mL] | Hematic levels in the healthy volunteer ([1]; 4 hours, 240 min) [µg/mL] | MIC (N. meningitidis SS 04) [µg/mL] | MIC (D. pneumoniae SS 23) [µg/mL] | MIC (S. heidelberg SS 18) [µg/mL] | Hematic levels in the rat ([2]; 0.3 h) [µg/mL] | Hematic levels in the rat ([2]; 1 h) [µg/mL] | Hematic levels in the rat ([2]; 2 h) [µg/mL] | Hematic levels in the rat ([2]; 3 h) [µg/mL] | MIC (B. cereus ATCC 11778) [µg/mL] | Hematic levels in the rat [3, 4] [µg/mL] | Hematic levels in the rat [3, 5] [µg/mL] | Hematic levels in the rat [3, 6] [µg/mL] | Hematic levels in the rat [3, 7] [µg/mL] | Hematic levels in the rat [3, 8] [µg/mL] | absorption by oral route (in words) [3] | also measured
1 | CCC(=O)O[C@H]1[C@H](O[C@@H]2[C@@H](C)[C@H](O[C@H]3C[C@@](C)(OC)[C@@H](O)[C@H](C)O3)[C@@H](C)C(=O)O[C@H](CC)[C@@](C)(O)[C@H](O)[C@@H](C)C(=O)[C@H](C)C[C@@]2(C)O)O[C@H](C)C[C@@H]1N(C)C [RV13, erythromycin-monopropionate-thiazolidin-carboxylate] | 50 (≈ 63.3 µM) | 1.16 | 1.67 | 2.21 | 1.67 | 1.29 | 0.8 (≈ 1.01 µM) | 0.025 (≈ 0.0316 µM) | 100 (≈ 127 µM) | 0.81 | 1.80 | 2.47 | 1.10 | 0.8 (≈ 1.01 µM) |  |  |  |  |  |  | Hematic levels in the rat ([2]; 4 h): 0.72 µg/mL; Hematic levels in the rat ([2]; 5 h): 0.52 µg/mL; Hematic levels in the rat ([2]; 6 h): 0.12 µg/mL; absorption by oral route (in words) [2]: absorbed by oral route in a rate practically analogous to that of erythromycin estolate
2 | CC[C@H]1OC(=O)[C@H](C)[C@@H](O[C@H]2C[C@@](C)(OC)[C@@H](O)[C@H](C)O2)[C@H](C)[C@@H](O[C@@H]2O[C@H](C)C[C@H](N(C)C)[C@H]2O)[C@](C)(O)C[C@@H](C)C(=O)[C@H](C)[C@@H](O)[C@]1(C)O [RV01, erythromycin alpha-mercaptosuccinate] | 100 (≈ 136 µM) |  |  |  |  |  | 0.8 (≈ 1.09 µM) | 0.05 (≈ 0.0681 µM) | 100 (≈ 136 µM) |  |  |  |  | 0.4 (≈ 0.545 µM) | 0.48 | 0.79 | 0.44 | 0.24 | 0.03 | poorly absorbed by oral route and in a rate like that of erythromycin base | concentration at 2 h ([3]; rat, blood, po, 100 mg/kg, Hematic levels in the rat, 2 hours, 100 mg/kg as erythromycin, average): 1180 ng/mL; concentration at 3 h ([3]; rat, blood, po, 100 mg/kg, Hematic levels in the rat, 3 hours, 100 mg/kg as erythromycin, average): 770 ng/mL
3 | CCC(=O)O[C@H]1[C@H](O[C@@H]2[C@@H](C)[C@H](O[C@H]3C[C@@](C)(OC)[C@@H](O)[C@H](C)O3)[C@@H](C)C(=O)O[C@H](CC)[C@@](C)(O)[C@H](O)[C@@H](C)C(=O)[C@H](C)C[C@@]2(C)O)O[C@H](C)C[C@@H]1N(C)C [RV11, erythromycin-monopropionate-alpha-mercaptosuccinate] | 50 (≈ 63.3 µM) | 1.28 | 1.70 | 2.16 | 1.48 | 1.21 | 1.5 (≈ 1.9 µM) | 0.025 (≈ 0.0316 µM) | 100 (≈ 127 µM) | 0.72 | 1.64 | 2.50 | 1.31 | 0.8 (≈ 1.01 µM) |  |  |  |  |  |  | Hematic levels in the rat ([2]; 4 h): 0.58 µg/mL; Hematic levels in the rat ([2]; 5 h): 0.38 µg/mL; Hematic levels in the rat ([2]; 6 h): 0.08 µg/mL; absorption by oral route (in words) [2]: absorbed by oral route in a rate practically analogous to that of erythromycin estolate
4 | CCC(=O)O[C@H]1[C@H](O[C@@H]2[C@@H](C)[C@H](O[C@H]3C[C@@](C)(OC)[C@@H](O)[C@H](C)O3)[C@@H](C)C(=O)O[C@H](CC)[C@@](C)(O)[C@H](O)[C@@H](C)C(=O)[C@H](C)C[C@@]2(C)O)O[C@H](C)C[C@@H]1N(C)C [RV15, erythromycin monopropionate N-acetylcysteinate] | 25 (≈ 31.6 µM) | 1.10 | 1.58 | 2.17 | 1.72 | 1.38 | 0.8 (≈ 1.01 µM) | 0.05 (≈ 0.0633 µM) | 100 (≈ 127 µM) | 0.85 | 1.90 | 2.68 | 1.19 | 0.4 (≈ 0.506 µM) |  |  |  |  |  |  | Hematic levels in the rat ([2]; 4 h): 0.55 µg/mL; Hematic levels in the rat ([2]; 5 h): 0.44 µg/mL; Hematic levels in the rat ([2]; 6 h): 0.03 µg/mL; absorption by oral route (in words) [2]: absorbed by oral route in a rate practically analogous to that of erythromycin estolate
5 | CC[C@H]1OC(=O)[C@H](C)[C@@H](O[C@H]2C[C@@](C)(OC)[C@@H](O)[C@H](C)O2)[C@H](C)[C@@H](O[C@@H]2O[C@H](C)C[C@H](N(C)C)[C@H]2O)[C@](C)(O)C[C@@H](C)C(=O)[C@H](C)[C@@H](O)[C@]1(C)O [RV03, erythromycyn-thiazolidin-carboxylate] | 50 (≈ 68.1 µM) |  |  |  |  |  | 1.5 (≈ 2.04 µM) | 0.025 (≈ 0.0341 µM) | 100 (≈ 136 µM) |  |  |  |  | 0.08 (≈ 0.109 µM) | 0.58 | 0.71 | 0.59 | 0.36 | 0.07 | poorly absorbed by oral route and in a rate like that of erythromycin base | Hematic levels in the rat [3, 9]: 1.30 µg/mL; Hematic levels in the rat [3, 10]: 0.77 µg/mL
6 | CC[C@H]1OC(=O)[C@H](C)[C@@H](O[C@H]2C[C@@](C)(OC)[C@@H](O)[C@H](C)O2)[C@H](C)[C@@H](O[C@@H]2O[C@H](C)C[C@H](N(C)C)[C@H]2O)[C@](C)(O)C[C@@H](C)C(=O)[C@H](C)[C@@H](O)[C@]1(C)O [RV04, erythromycin-S-carboxymethylcysteinate] | 100 (≈ 136 µM) |  |  |  |  |  | 1.5 (≈ 2.04 µM) | 0.05 (≈ 0.0681 µM) | 100 (≈ 136 µM) |  |  |  |  | 0.2 (≈ 0.273 µM) | 0.50 | 0.71 | 0.68 | 0.43 | 0.15 | poorly absorbed by oral route and in a rate like that of erythromycin base | Hematic levels in the rat [3, 9]: 1.30 µg/mL; Hematic levels in the rat [3, 10]: 1.04 µg/mL
7 | CC[C@H]1OC(=O)[C@H](C)[C@@H](O[C@H]2C[C@@](C)(OC)[C@@H](O)[C@H](C)O2)[C@H](C)[C@@H](O[C@@H]2O[C@H](C)C[C@H](N(C)C)[C@H]2O)[C@](C)(O)C[C@@H](C)C(=O)[C@H](C)[C@@H](O)[C@]1(C)O [RV05, erythromycin-N-acetylcysteinate] | 100 (≈ 136 µM) |  |  |  |  |  | 0.8 (≈ 1.09 µM) | 0.05 (≈ 0.0681 µM) | 100 (≈ 136 µM) |  |  |  |  | 0.4 (≈ 0.545 µM) | 0.44 | 0.83 | 0.59 | 0.40 | 0.08 | poorly absorbed by oral route and in a rate like that of erythromycin base | Hematic levels in the rat [3, 9]: 1.41 µg/mL; Hematic levels in the rat [3, 10]: 1.03 µg/mL
